Test results reported in patent publication US20170100374A1, “POTENTIATOR-CORRECTOR COMBINATIONS USEFUL IN THE TREATMENT OF CYSTIC FIBROSIS” (AbbVie S.à.r.l., priority 2015, published 2017).

How the values were obtained:
[1] = target: T1, F508del-CFTR (Homo sapiens, UniProt P13569, DEL508-508); conditions: patients having F508del-CFTR class II mutation (Flume et al., 2012); cited from earlier work
T1 construct: host or cells: CF patients

[2] = test system: CFTR; conditions: patients with CF (Wilschanski et al., 2003); cited from earlier work
[3] = target: T2, HEK293 wild type CFTR membrane fractions (Homo sapiens, UniProt P13569); test: Back-Scattering Interferometry (Molecular Sensing) binding to CFTR membrane fractions
T2 construct: expressed in transfected cells; host or cells: HEK293 (membrane fractions)
T2 sequence (P13569 whole entry): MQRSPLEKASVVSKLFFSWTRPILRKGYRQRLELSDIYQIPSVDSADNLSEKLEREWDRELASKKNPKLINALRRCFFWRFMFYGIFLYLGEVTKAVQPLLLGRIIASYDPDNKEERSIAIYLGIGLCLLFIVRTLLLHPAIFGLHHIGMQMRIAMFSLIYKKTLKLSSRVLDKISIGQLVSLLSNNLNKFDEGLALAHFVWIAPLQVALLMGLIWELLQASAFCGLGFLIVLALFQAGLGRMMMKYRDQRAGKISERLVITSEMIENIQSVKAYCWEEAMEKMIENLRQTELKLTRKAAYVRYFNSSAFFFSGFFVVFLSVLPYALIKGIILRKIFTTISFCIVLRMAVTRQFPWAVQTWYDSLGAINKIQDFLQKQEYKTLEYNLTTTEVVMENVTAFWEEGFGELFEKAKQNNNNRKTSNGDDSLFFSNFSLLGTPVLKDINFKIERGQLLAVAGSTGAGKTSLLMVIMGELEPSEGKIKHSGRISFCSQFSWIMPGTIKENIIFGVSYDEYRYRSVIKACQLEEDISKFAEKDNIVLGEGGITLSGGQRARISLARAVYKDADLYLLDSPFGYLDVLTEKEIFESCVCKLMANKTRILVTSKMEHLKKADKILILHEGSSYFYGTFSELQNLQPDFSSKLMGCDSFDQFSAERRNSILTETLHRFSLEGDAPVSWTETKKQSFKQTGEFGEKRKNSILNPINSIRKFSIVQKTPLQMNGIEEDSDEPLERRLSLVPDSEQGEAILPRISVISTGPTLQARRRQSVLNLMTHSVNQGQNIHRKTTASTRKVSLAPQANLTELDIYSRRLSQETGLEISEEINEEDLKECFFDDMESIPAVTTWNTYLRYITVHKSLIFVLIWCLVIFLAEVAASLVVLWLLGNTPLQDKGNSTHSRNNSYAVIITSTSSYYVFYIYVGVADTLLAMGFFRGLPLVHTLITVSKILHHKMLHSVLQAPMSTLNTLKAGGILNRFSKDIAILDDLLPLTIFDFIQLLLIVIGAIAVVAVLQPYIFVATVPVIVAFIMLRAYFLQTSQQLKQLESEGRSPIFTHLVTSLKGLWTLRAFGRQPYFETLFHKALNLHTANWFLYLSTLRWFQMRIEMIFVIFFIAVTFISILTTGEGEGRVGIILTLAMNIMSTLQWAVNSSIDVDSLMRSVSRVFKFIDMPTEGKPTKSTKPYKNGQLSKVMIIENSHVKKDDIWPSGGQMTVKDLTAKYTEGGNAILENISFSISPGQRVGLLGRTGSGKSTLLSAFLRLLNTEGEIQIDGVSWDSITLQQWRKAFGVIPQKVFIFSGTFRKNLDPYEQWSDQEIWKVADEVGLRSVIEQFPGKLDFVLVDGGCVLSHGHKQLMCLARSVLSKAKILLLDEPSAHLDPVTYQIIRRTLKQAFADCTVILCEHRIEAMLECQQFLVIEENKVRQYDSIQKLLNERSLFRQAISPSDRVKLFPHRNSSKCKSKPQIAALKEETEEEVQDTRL
Procedure: TruBind™ Back-Scattering Interferometry (BSI) (Molecular Sensing GmbH) can be used to determine binding constants of different compounds to CFTR-expressing cells.
HEK293 wild type CFTR and HEK293 control membrane fractions are used as 100 μg (total protein amount) aliquots in 50 mM Tris-HCl pH 7.5, 1 mM EDTA, 10% Glycerol+PIC and stored at −80° C.
The buffer used for the assays is 50 mM Tris-HCl pH 7.5, 1 mM EDTA with 1.2% DMSO. The refractive index of the assay buffer and the compound are matched and then a 2x serial dilution is done in polypropylene dilution reservoirs.
A thawed aliquot of HEK293.CFTRwt as well as a thawed aliquot of HEK293 control membrane fractions is diluted to 10 mL in 50 mM Tris-HCl pH 7.5, 1 mM EDTA with 1.2% DMSO. The refractive index of the assay buffer and the two membrane fractions are matched by adding water to the membrane fractions.
Compound and target are mixed 1:1 in 96-well PCR microtiter plates to a final volume of 150 μL and heat sealed with foil. The assays are allowed to incubate at room temperature for 4 hours before being run on the BSI instrument. Wells are pierced individually prior to sample injection and measurement of BSI signal (each well is analyzed in quadruplicates). […]
The final data for the difference curve is exported to Graphpad Prism® and analyzed using a one-site binding equation to determine a Kd for the assay. […]

T1 sequence (P13569 with tags, fused parts or gaps DEL508-508): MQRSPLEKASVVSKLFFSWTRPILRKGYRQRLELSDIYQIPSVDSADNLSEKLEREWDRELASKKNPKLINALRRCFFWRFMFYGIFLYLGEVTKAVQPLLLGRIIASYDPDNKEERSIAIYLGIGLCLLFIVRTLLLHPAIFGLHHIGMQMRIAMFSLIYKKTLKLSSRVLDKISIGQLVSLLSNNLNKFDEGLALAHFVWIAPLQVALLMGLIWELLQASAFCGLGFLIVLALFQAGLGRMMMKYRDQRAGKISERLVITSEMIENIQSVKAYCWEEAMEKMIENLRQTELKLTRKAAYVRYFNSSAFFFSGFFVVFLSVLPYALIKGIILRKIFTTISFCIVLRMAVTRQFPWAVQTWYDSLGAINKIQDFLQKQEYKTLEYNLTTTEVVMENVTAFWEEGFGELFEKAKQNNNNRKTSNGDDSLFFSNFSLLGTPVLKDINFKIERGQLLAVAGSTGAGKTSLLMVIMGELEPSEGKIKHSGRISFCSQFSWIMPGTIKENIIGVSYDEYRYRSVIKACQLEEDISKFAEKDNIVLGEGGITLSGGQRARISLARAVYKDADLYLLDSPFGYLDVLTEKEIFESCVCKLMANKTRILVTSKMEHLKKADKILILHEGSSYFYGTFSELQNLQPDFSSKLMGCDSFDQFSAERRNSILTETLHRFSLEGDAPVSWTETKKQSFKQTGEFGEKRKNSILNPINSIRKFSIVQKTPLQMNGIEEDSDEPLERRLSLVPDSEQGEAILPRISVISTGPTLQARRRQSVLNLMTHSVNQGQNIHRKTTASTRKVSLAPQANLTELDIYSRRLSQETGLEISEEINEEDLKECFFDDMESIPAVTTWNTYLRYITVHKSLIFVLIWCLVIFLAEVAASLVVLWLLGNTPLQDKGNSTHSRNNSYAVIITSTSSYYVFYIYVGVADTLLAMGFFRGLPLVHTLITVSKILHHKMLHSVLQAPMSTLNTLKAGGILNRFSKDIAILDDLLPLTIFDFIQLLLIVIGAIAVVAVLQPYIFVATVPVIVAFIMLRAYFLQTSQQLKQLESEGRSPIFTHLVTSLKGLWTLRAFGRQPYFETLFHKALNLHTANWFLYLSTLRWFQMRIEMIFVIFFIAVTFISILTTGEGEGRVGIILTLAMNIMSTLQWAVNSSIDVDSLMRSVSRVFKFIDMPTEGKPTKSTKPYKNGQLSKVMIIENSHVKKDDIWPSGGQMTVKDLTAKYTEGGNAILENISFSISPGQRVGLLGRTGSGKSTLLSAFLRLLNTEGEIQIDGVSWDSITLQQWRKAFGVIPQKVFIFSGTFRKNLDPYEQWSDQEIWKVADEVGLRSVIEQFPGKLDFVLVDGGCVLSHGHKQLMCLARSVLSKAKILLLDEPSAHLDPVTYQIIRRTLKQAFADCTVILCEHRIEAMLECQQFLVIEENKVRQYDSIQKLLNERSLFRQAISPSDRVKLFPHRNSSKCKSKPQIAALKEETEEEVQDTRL

Q: With `CC(C)(C)c1cc(C(C)(C)C)c(NC(=O)c2c[nH]c3ccccc3c2=O)cc1O` [VX-770] as the compound, how does the “therapeutic efficacy in patients” value [1] read?
A: no significant therapeutic efficacy

Q: Which “change in Nasal Potential Difference (NPD) values” [2] does the source give for gentamicin here?
A: small changes

Q: For `COc1ccc2c(c1)O[C@@H](c1ccc(C(=O)O)cc1)C[C@H]2NC(=O)C1(c2ccc3c(c2)OC(F)(F)O3)CC1` [C1], which Kd ([3]; binding to wild-type CFTR membrane fractions, control membrane fractions subtracted, one-site binding fit) is on record?
A: 94.7 ± 26.5 nM

Q: What about the “binding affinity to the membrane fraction of CFTR (in words)” value ([3]; comment on Table 1) of the same compound?
A: binding affinity similar to the known correctors acting on CFTR
